In ChEMBL document CHEMBL2074183, “Purification of the human apical conjugate export pump MRP2 reconstitution and functional characterization as substrate-stimulated ATPase” (Eur J Biochem, 1999):

Molecular target: ATP-binding cassette sub-family C member 2 (Homo sapiens, UniProt Q92887)
Assay: TP_TRANSPORTER: ATP hydrolysis in MRP2 reconstituted into proteoliposome
Type: functional, subcellular

ATP-binding cassette sub-family C member 2, sequence (Q92887 whole entry): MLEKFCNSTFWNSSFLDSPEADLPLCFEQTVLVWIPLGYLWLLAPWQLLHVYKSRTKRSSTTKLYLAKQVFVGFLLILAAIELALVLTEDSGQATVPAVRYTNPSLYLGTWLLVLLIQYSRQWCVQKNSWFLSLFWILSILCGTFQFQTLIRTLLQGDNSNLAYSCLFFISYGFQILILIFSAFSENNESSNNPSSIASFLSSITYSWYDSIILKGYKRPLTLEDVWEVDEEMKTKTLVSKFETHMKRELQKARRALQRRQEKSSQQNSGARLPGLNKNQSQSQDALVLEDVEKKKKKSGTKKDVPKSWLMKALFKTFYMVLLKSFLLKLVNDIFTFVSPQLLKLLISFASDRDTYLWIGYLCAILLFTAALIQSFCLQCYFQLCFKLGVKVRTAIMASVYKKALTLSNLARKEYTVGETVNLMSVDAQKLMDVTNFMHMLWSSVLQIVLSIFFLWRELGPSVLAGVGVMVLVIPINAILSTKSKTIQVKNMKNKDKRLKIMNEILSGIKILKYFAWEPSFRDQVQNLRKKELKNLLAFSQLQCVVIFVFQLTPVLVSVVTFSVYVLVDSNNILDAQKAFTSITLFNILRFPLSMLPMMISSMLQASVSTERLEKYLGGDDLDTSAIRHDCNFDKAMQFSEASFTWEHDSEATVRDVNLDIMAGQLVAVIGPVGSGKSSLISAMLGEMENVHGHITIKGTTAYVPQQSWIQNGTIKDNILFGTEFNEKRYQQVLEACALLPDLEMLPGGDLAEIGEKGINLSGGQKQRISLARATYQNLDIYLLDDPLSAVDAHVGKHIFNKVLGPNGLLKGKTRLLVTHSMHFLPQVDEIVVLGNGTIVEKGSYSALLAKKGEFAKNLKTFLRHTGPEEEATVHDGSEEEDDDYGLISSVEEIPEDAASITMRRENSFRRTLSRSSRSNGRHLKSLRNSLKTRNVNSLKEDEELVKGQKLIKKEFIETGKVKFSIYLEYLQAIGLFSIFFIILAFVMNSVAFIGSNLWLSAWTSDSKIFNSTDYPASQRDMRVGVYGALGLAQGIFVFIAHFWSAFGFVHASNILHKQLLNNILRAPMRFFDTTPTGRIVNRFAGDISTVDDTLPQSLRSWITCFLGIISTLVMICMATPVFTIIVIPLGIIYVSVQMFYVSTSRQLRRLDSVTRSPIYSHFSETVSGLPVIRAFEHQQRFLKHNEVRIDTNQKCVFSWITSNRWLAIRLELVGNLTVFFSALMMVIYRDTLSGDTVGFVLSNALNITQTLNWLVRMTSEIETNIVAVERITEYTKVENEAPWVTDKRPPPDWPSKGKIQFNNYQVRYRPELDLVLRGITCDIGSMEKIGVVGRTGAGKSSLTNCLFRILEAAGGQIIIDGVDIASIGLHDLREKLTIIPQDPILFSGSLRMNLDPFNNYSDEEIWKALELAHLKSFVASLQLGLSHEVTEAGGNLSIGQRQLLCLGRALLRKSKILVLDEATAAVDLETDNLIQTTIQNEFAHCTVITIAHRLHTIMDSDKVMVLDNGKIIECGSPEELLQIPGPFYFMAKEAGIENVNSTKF

Row | Activity | Compound
1 | substrate [+] | CCCCCCCCCCSC[C@H](NC(=O)CC[C@H](N)C(=O)O)C(=O)NCC(=O)O
2 | substrate [+] | N[C@@H](CCC(=O)N[C@@H](CS)C(=O)NCC(=O)O)C(=O)O [GLUTATHIONE]
